{
  "source": "paper PMC5218480",
  "about": "(PLoS ONE, 2017)",
  "system": "MV-4-11 cells",
  "assay": "Gene expression microarray analysis (Affymetrix PrimeView) and GSEA",
  "type": "cell-based, human",
  "parameters": "RFU PODN (11730768_x_at) / Fold change /veh PODN (11730768_x_at) / RFU LINC00158 (11744669_a_at) / Fold change /veh LINC00158 (11744669_a_at) / RFU DUSP10 (11751237_a_at) / Fold change /veh DUSP10 (11751237_a_at) / RFU ID3 (11757404_x_at) / Fold change /veh ID3 (11757404_x_at) / RFU PLEKHG5 (11737974_s_at) / Fold change /veh PLEKHG5 (11737974_s_at) / RFU LRRC4B (11730491_at) / Fold change /veh LRRC4B (11730491_at) / RFU GIMAP4 (11747438_a_at) / Fold change /veh GIMAP4 (11747438_a_at) / RFU KRT8 (11758183_x_at) / Fold change /veh KRT8 (11758183_x_at) / RFU CNN1 (11734310_a_at) / Fold change /veh CNN1 (11734310_a_at) / RFU VPS37D (11726825_at) / Fold change /veh VPS37D (11726825_at) / RFU C10orf10 (11716522_x_at) / Fold change /veh C10orf10 (11716522_x_at) / RFU KIR2DL2 /// KIR2DL4 /// KIR2DL5A /// KIR2DL5B /// KIR2DS1 /// KIR2DS2 /// KIR2DS3 /// KIR2DS4 /// KIR3DL3 /// KIR3DL3 /// KIR3DS1 (11738374_at) / Fold change /veh KIR2DL2 /// KIR2DL4 /// KIR2DL5A /// KIR2DL5B /// KIR2DS1 /// KIR2DS2 /// KIR2DS3 /// KIR2DS4 /// KIR3DL3 /// KIR3DL3 /// KIR3DS1 (11738374_at) / RFU C1QL1 (11718748_at) / Fold change /veh C1QL1 (11718748_at) / RFU TMPRSS4 (11747572_a_at) / Fold change /veh TMPRSS4 (11747572_a_at) / RFU HAMP (11756126_x_at) / Fold change /veh HAMP (11756126_x_at) / RFU RNFT2 (11725882_a_at) / Fold change /veh RNFT2 (11725882_a_at) / RFU NR4A2 (11747474_a_at) / Fold change /veh NR4A2 (11747474_a_at) / RFU ABCC12 (11746883_a_at) / Fold change /veh ABCC12 (11746883_a_at) / RFU TMEM136 (11760407_x_at) / Fold change /veh TMEM136 (11760407_x_at) / RFU CLDN22 /// WWC2 (11732394_at) / Fold change /veh CLDN22 /// WWC2 (11732394_at) / RFU HLA-DPB1 (11760878_x_at) / Fold change /veh HLA-DPB1 (11760878_x_at) / RFU SPINT1 (11716480_a_at) / Fold change /veh SPINT1 (11716480_a_at) / RFU GAP43 (11754022_s_at) / Fold change /veh GAP43 (11754022_s_at) / RFU A4GNT (11735810_at) / Fold change /veh A4GNT (11735810_at) / RFU PRB3 (11715151_x_at) / Fold change /veh PRB3 (11715151_x_at) / RFU TUBB4B (11761932_at) / Fold change /veh TUBB4B (11761932_at) / RFU CAPN14 (11732068_a_at) / Fold change /veh CAPN14 (11732068_a_at) / RFU TMCC2 (11721928_a_at) / Fold change /veh TMCC2 (11721928_a_at) / RFU IRGQ (11745062_a_at) / Fold change /veh IRGQ (11745062_a_at) / RFU FAM174B (11720279_a_at) / Fold change /veh FAM174B (11720279_a_at) / RFU TMPRSS4 (11748680_a_at) / Fold change /veh TMPRSS4 (11748680_a_at) / RFU FAM212B (11763350_a_at) / Fold change /veh FAM212B (11763350_a_at) / RFU PLEKHG5 (11743358_a_at) / Fold change /veh PLEKHG5 (11743358_a_at) / RFU ZSCAN30 (11745921_a_at) / Fold change /veh ZSCAN30 (11745921_a_at) / RFU CMKLR1 (11741424_a_at) / Fold change /veh CMKLR1 (11741424_a_at) / RFU LOC101060620 /// MAPK8IP1 (11723275_at) / Fold change /veh LOC101060620 /// MAPK8IP1 (11723275_at) / RFU SPTSSB (11747773_x_at) / Fold change /veh SPTSSB (11747773_x_at) / RFU PRSS12 (11739890_at) / Fold change /veh PRSS12 (11739890_at) / RFU BIN1 (11741810_x_at) / Fold change /veh BIN1 (11741810_x_at) / RFU WNT11 (11732464_a_at) / Fold change /veh WNT11 (11732464_a_at) / RFU C10orf10 (11716521_a_at) / Fold change /veh C10orf10 (11716521_a_at) / RFU C5orf56 (11738089_at) / Fold change /veh C5orf56 (11738089_at) / RFU CYB561 (11721691_x_at) / Fold change /veh CYB561 (11721691_x_at) / RFU ANKRD19P (11752326_a_at) / Fold change /veh ANKRD19P (11752326_a_at) / RFU OR2T12 /// OR2T33 /// OR2T8 (11738714_s_at) / Fold change /veh OR2T12 /// OR2T33 /// OR2T8 (11738714_s_at) / RFU VCAN (11748164_a_at) / Fold change /veh VCAN (11748164_a_at) / RFU JSRP1 (11732532_at) / Fold change /veh JSRP1 (11732532_at) / RFU KRTAP10-11 (11738290_x_at) / Fold change /veh KRTAP10-11 (11738290_x_at) / RFU MYO3A (11730013_a_at) / Fold change /veh MYO3A (11730013_a_at) / RFU EBF3 (11725865_a_at) / Fold change /veh EBF3 (11725865_a_at) / RFU CAMK2N1 (11719241_x_at) / Fold change /veh CAMK2N1 (11719241_x_at) / RFU C5orf56 (11738088_a_at) / Fold change /veh C5orf56 (11738088_a_at) / RFU OLFML3 (11715873_a_at) / Fold change /veh OLFML3 (11715873_a_at) / RFU LOC100653217 /// NTM (11731650_a_at) / Fold change /veh LOC100653217 /// NTM (11731650_a_at) / RFU MAPK11 (11762145_a_at) / Fold change /veh MAPK11 (11762145_a_at) / RFU FIZ1 (11724087_x_at) / Fold change /veh FIZ1 (11724087_x_at) / RFU OASL (11726364_x_at) / Fold change /veh OASL (11726364_x_at) / RFU SOX15 (11748057_x_at) / Fold change /veh SOX15 (11748057_x_at) / RFU CD79A (11719716_a_at) / Fold change /veh CD79A (11719716_a_at) / RFU HIST1H1D (11736915_at) / Fold change /veh HIST1H1D (11736915_at) / RFU CASKIN2 (11723855_a_at) / Fold change /veh CASKIN2 (11723855_a_at) / RFU LOC730098 (11760151_x_at) / Fold change /veh LOC730098 (11760151_x_at) / RFU OR4N2 (11742367_at) / Fold change /veh OR4N2 (11742367_at) / RFU PRRT2 (11749266_a_at) / Fold change /veh PRRT2 (11749266_a_at) / RFU SNX32 (11753110_a_at) / Fold change /veh SNX32 (11753110_a_at) / RFU CDHR5 (11726645_a_at) / Fold change /veh CDHR5 (11726645_a_at) / RFU RCAN1 (11760418_a_at) / Fold change /veh RCAN1 (11760418_a_at) / RFU FAM167A (11723789_a_at) / Fold change /veh FAM167A (11723789_a_at) / RFU FAM26E (11764081_at) / Fold change /veh FAM26E (11764081_at) / RFU ISYNA1 (11749810_s_at) / Fold change /veh ISYNA1 (11749810_s_at) / RFU ACY1 (11761880_at) / Fold change /veh ACY1 (11761880_at) / RFU 11764098_at / Fold change /veh 11764098_at / RFU SAMD14 (11745864_x_at) / Fold change /veh SAMD14 (11745864_x_at) / RFU NPB (11741838_a_at) / Fold change /veh NPB (11741838_a_at) / RFU TMPRSS6 (11731388_a_at) / Fold change /veh TMPRSS6 (11731388_a_at) / RFU KRTAP10-2 (11738614_at) / Fold change /veh KRTAP10-2 (11738614_at) / RFU ARHGAP8 /// PRR5-ARHGAP8 (11727945_x_at) / Fold change /veh ARHGAP8 /// PRR5-ARHGAP8 (11727945_x_at) / RFU KRTAP5-7 /// NADSYN1 (11734609_at) / Fold change /veh KRTAP5-7 /// NADSYN1 (11734609_at) / RFU RASL12 (11751679_a_at) / Fold change /veh RASL12 (11751679_a_at) / RFU CDKN2B (11736163_a_at) / Fold change /veh CDKN2B (11736163_a_at) / RFU PRF1 (11729649_at) / Fold change /veh PRF1 (11729649_at) / RFU, ZNF638 /// ZNF638-IT1 / Fold change vs veh, ZNF638 /// ZNF638-IT1 / RFU, PANK3 / Fold change vs veh, PANK3 / RFU, SH3YL1 / Fold change vs veh, SH3YL1 / RFU, ZEB2 / Fold change vs veh, ZEB2 / RFU, NRIP1 / Fold change vs veh, NRIP1 / RFU, PTTG1IP / Fold change vs veh, PTTG1IP / RFU, CAPN2 / Fold change vs veh, CAPN2 / RFU, MED14 / Fold change vs veh, MED14 / RFU, SNORA58 / Fold change vs veh, SNORA58 / RFU, C1orf63 / Fold change vs veh, C1orf63 / RFU, LRRFIP1 / Fold change vs veh, LRRFIP1 / RFU, NDUFAF7 / Fold change vs veh, NDUFAF7 / RFU, SLC12A2 / Fold change vs veh, SLC12A2 / RFU, IBTK / Fold change vs veh, IBTK / RFU, ESF1 / Fold change vs veh, ESF1 / Fold change vs veh, TMEM50B / RFU, TAOK1 / Fold change vs veh, TAOK1 / RFU, ACBD3 / Fold change vs veh, ACBD3 / RFU, TMA16 / Fold change vs veh, TMA16 / RFU, RWDD3 / Fold change vs veh, RWDD3 / RFU, BCAT1 / Fold change vs veh, BCAT1 / RFU, EDEM3 / Fold change vs veh, EDEM3 / RFU, TMEM33 / Fold change vs veh, TMEM33 / RFU, WDR75 / Fold change vs veh, WDR75 / RFU, AHCTF1 / Fold change vs veh, AHCTF1 / RFU, TFRC / Fold change vs veh, TFRC / RFU, ZDHHC17 / Fold change vs veh, ZDHHC17 / RFU, NOM1 / Fold change vs veh, NOM1 / RFU, ARL8B / Fold change vs veh, ARL8B / RFU, ZBTB11 / Fold change vs veh, ZBTB11 / RFU, TAMM41 / Fold change vs veh, TAMM41 / RFU, KIAA1704 /// LOC100996395 / Fold change vs veh, KIAA1704 /// LOC100996395 / RFU, ING1 / Fold change vs veh, ING1 / RFU, TRMT61B / Fold change vs veh, TRMT61B / RFU, FUBP3 / Fold change vs veh, FUBP3 / RFU, TP53 / Fold change vs veh, TP53 / RFU, TNKS2 / Fold change vs veh, TNKS2 / RFU, ZFP14 / Fold change vs veh, ZFP14 / RFU, ACTR2 / Fold change vs veh, ACTR2 / RFU, PPP3R1 / Fold change vs veh, PPP3R1 / RFU, PIK3R1 / Fold change vs veh, PIK3R1 / RFU, HNRNPA1 / Fold change vs veh, HNRNPA1 / RFU, RNF170 / Fold change vs veh, RNF170 / RFU, ZNF28 / Fold change vs veh, ZNF28 / RFU, RNGTT / Fold change vs veh, RNGTT / RFU, OGT / Fold change vs veh, OGT / RFU, BRD1 / Fold change vs veh, BRD1 / RFU, MARS / Fold change vs veh, MARS / RFU, ZNF655 / Fold change vs veh, ZNF655 / RFU, FAHD1 / Fold change vs veh, FAHD1 / RFU, BDP1 / Fold change vs veh, BDP1 / RFU, LRRCC1 / Fold change vs veh, LRRCC1 / RFU, ARID1A / Fold change vs veh, ARID1A / RFU, ZNF146 / Fold change vs veh, ZNF146 / RFU, ZNF330 / Fold change vs veh, ZNF330 / RFU, GPN3 / Fold change vs veh, GPN3 / RFU, C9orf123 / Fold change vs veh, C9orf123 / RFU, N4BP2L2 / Fold change vs veh, N4BP2L2 / RFU, ARFIP1 / Fold change vs veh, ARFIP1 / RFU, FAM179B / Fold change vs veh, FAM179B / RFU, BCL10 / Fold change vs veh, BCL10 / RFU, UHRF1BP1L / Fold change vs veh, UHRF1BP1L / RFU, BET1 / Fold change vs veh, BET1 / RFU, CNOT2 / Fold change vs veh, CNOT2 / RFU, ZNF268 / Fold change vs veh, ZNF268 / Fold change vs veh, ZNF507 / RFU, DGCR2 / Fold change vs veh, DGCR2 / RFU, WDSUB1 / Fold change vs veh, WDSUB1 / Fold change vs veh, HSP90B1 /// MIR3652 / RFU, ADSS / Fold change vs veh, ADSS / RFU, GK / Fold change vs veh, GK / RFU, ZNF148 / Fold change vs veh, ZNF148 / RFU, TAF9 / Fold change vs veh, TAF9 / RFU, SLC1A5 / Fold change vs veh, SLC1A5 / RFU, SLMO2 / Fold change vs veh, SLMO2 / RFU, ABCC4 / Fold change vs veh, ABCC4 / RFU, LOC101060439 /// RAP1B / Fold change vs veh, LOC101060439 /// RAP1B / RFU, RFX7 / Fold change vs veh, RFX7 / RFU, GTPBP10 / Fold change vs veh, GTPBP10 / RFU, CNEP1R1 / Fold change vs veh, CNEP1R1 / RFU, BIVM-ERCC5 /// ERCC5 / Fold change vs veh, BIVM-ERCC5 /// ERCC5 / RFU, ILF3 / Fold change vs veh, ILF3 / RFU 11762660_at / Fold change /veh 11762660_at / RFU VCAN (11757783_s_at) / Fold change /veh VCAN (11757783_s_at) / RFU DDX43 (11728927_at) / Fold change /veh DDX43 (11728927_at) / RFU KRT8 (11758188_x_at) / Fold change /veh KRT8 (11758188_x_at) / RFU NKD1 (11759106_at) / Fold change /veh NKD1 (11759106_at) / RFU SRD5A1 (11742802_a_at) / Fold change /veh SRD5A1 (11742802_a_at) / RFU TPSAB1 /// TPSB2 (11721975_s_at) / Fold change /veh TPSAB1 /// TPSB2 (11721975_s_at) / RFU GSTM3 (11746129_a_at) / Fold change /veh GSTM3 (11746129_a_at) / RFU IL23R (11737362_x_at) / Fold change /veh IL23R (11737362_x_at) / RFU TMEM51 (11727254_a_at) / Fold change /veh TMEM51 (11727254_a_at) / RFU PIWIL2 (11732686_x_at) / Fold change /veh PIWIL2 (11732686_x_at) / RFU ORM1 (11744905_x_at) / Fold change /veh ORM1 (11744905_x_at) / RFU CCDC152 (11743942_at) / Fold change /veh CCDC152 (11743942_at) / RFU ECM1 (11717891_a_at) / Fold change /veh ECM1 (11717891_a_at) / RFU IL23R (11748794_a_at) / Fold change /veh IL23R (11748794_a_at) / RFU TNFAIP8L3 (11732012_x_at) / Fold change /veh TNFAIP8L3 (11732012_x_at) / RFU MBOAT4 (11741988_at) / Fold change /veh MBOAT4 (11741988_at) / RFU 11764193_at / Fold change /veh 11764193_at / RFU TMEM53 (11763286_at) / Fold change /veh TMEM53 (11763286_at) / RFU MAGEB2 (11727129_at) / Fold change /veh MAGEB2 (11727129_at) / RFU TMEM200A (11744735_a_at) / Fold change /veh TMEM200A (11744735_a_at) / RFU CCDC152 (11751479_a_at) / Fold change /veh CCDC152 (11751479_a_at) / RFU FAM211A (11726209_a_at) / Fold change /veh FAM211A (11726209_a_at) / RFU RGS16 (11746705_a_at) / Fold change /veh RGS16 (11746705_a_at) / RFU VCAN (11755009_s_at) / Fold change /veh VCAN (11755009_s_at) / RFU RHOB (11743442_s_at) / Fold change /veh RHOB (11743442_s_at) / RFU RGS16 (11720943_a_at) / Fold change /veh RGS16 (11720943_a_at) / RFU RGS16 (11720944_at) / Fold change /veh RGS16 (11720944_at) / RFU, VPS4B / Fold change vs veh, VPS4B / RFU, CREB1 / Fold change vs veh, CREB1 / RFU, DNAJC13 / Fold change vs veh, DNAJC13 / RFU, GNAQ / Fold change vs veh, GNAQ / RFU, CDK5R1 / Fold change vs veh, CDK5R1 / RFU, ZRANB3 / Fold change vs veh, ZRANB3 / RFU, CUL4A / Fold change vs veh, CUL4A / RFU, CCNY / Fold change vs veh, CCNY / RFU, UFL1 / Fold change vs veh, UFL1 / RFU, COG3 / Fold change vs veh, COG3 / RFU, DIAPH2 / Fold change vs veh, DIAPH2 / RFU, SKA2 / Fold change vs veh, SKA2 / RFU, AFF3 / Fold change vs veh, AFF3 / RFU, LMF1 / Fold change vs veh, LMF1 / RFU, IPO11 / Fold change vs veh, IPO11 / RFU, DFFB / Fold change vs veh, DFFB / RFU, FOXP1 / Fold change vs veh, FOXP1 / RFU, CARD8 / Fold change vs veh, CARD8 / RFU, STRN3 / Fold change vs veh, STRN3 / RFU, ADK / Fold change vs veh, ADK / RFU, RASSF2 / Fold change vs veh, RASSF2 / RFU, WIPF1 / Fold change vs veh, WIPF1 / RFU, LARP1B / Fold change vs veh, LARP1B / RFU, RASA1 / Fold change vs veh, RASA1 / RFU, RB1 / Fold change vs veh, RB1 / RFU, PPFIA1 / Fold change vs veh, PPFIA1 / RFU, MAT2A / Fold change vs veh, MAT2A / RFU, CCT5 / Fold change vs veh, CCT5 / RFU, WDR92 / Fold change vs veh, WDR92 / RFU, CUX1 / Fold change vs veh, CUX1 / RFU, TTC7A / Fold change vs veh, TTC7A / RFU, TMEM135 / Fold change vs veh, TMEM135 / RFU, DEPTOR / Fold change vs veh, DEPTOR / RFU, CPM / Fold change vs veh, CPM / RFU, DNAJB6 / Fold change vs veh, DNAJB6 / RFU, CACNA2D3 / Fold change vs veh, CACNA2D3 / RFU, DTX4 / Fold change vs veh, DTX4 / RFU, TFCP2 / Fold change vs veh, TFCP2 / RFU, GMCL1 /// GMCL1P1 / Fold change vs veh, GMCL1 /// GMCL1P1 / RFU, AEBP2 / Fold change vs veh, AEBP2 / RFU, SNHG1 /// SNORD22 /// SNORD25 /// SNORD26 /// SNORD27 /// SNORD28 /// SNORD29 /// SNORD31 / Fold change vs veh, SNHG1 /// SNORD22 /// SNORD25 /// SNORD26 /// SNORD27 /// SNORD28 /// SNORD29 /// SNORD31 / Fold change (Aza/veh), C12orf56 (ProbeSet 11735607_a_at) / Fold change (ACY-1035/veh), C12orf56 (ProbeSet 11735607_a_at) / Fold change (Aza/veh), FGFR1OP (ProbeSet 11751329_s_at) / Fold change (ACY-1035/veh), FGFR1OP (ProbeSet 11751329_s_at) / Fold change (Aza/veh), VPS36 (ProbeSet 11739960_a_at) / Fold change (ACY-1035/veh), VPS36 (ProbeSet 11739960_a_at) / RFU SYPL1 (11715823_x_at) / Fold change /veh SYPL1 (11715823_x_at) / RFU IGFBP7 (11715501_s_at) / Fold change /veh IGFBP7 (11715501_s_at) / RFU REEP3 (11722064_at) / Fold change /veh REEP3 (11722064_at) / RFU IGLL1 (11728026_x_at) / Fold change /veh IGLL1 (11728026_x_at): dose or concentration left out as unconfirmed",
  "conditions": "ProbeSet 11728271_at; LIST B",
  "data": [
    {"smiles": "Nc1ccc(-c2cccs2)cc1NC(=O)c1ccc2c(c1)cc(C1CC1)n2CCN1CCOCC1", "note": "[ACY-1035]", "values": [
      {"measurement": "Fold change vs veh, ZNF330", "value": 0.88}
    ]}
  ]
}
